Source: PubChem BioAssay AID296 (DTP/NCI, 2004)
Several values for one entry are separate records, joined by “and”; a condition that tells them apart may be missing. Equal entries are not always repeated. Inconclusive results are not listed. *1 amine or outer side, *2 acyl side, *3 side chain or, on linkers, in order; H or OH if unused. Where a SMILES comes first, the peptide text is derived from it. Bridges are numbered along the chain shown (N, C = ends). Roman numbers before positions name the chains, in order. [ ]: non-standard residue; d: D form. Actinocin(9to1) = Cc1c2oc3c(C)ccc(C(=O)[*:1])c3nc-2c(C(=O)[*:2])c(N)c1=O; aThr = C[C@H](O)[C@H](N)C(=O)O; NMeV = CN[C@H](C(=O)O)C(C)C; Sar = CNCC(=O)O

System: MX-1 breast xenograft, nude mice, tumor weight T/C
Experiment: NCI In Vivo Anticancer Drug Screen. Data for tumor model Human Mammary Carcinoma MX-1 Xenograft (intrarenal inoculation) in NU/NU Swiss (nude) mice
Conditions: endpoint: mean tumor weight change, higher = larger tumour
Summary of the method: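 Tumor-bearing mice were treated with test compound alongside a vehicle-treated control group. Survival or tumor size was measured, and activity is expressed as the treated-group value divided by the control-group value.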

[1] = dose: 300.0 mg/kg/injection, schedule: Q04DX003 (sc), vehicle: Klucel (hydroxypropylcellulose) (HPC)
[2] = dose: 600.0 mg/kg/injection, schedule: Q04DX003 (sc), vehicle: saline with Tween-80
[3] = dose: 1200.0 mg/kg/injection, schedule: Q04DX003 (sc), vehicle: saline with Tween-80
[4] = dose: 200.0 mg/kg/injection, schedule: Q04DX003 (sc), vehicle: suspension in saline
[5] = dose: 400.0 mg/kg/injection, schedule: Q04DX003 (sc), vehicle: suspension in saline
[6] = dose: 50.0 mg/kg/injection, schedule: Q01DX010 (sc), vehicle: saline with Tween-80
[7] = dose: 100.0 mg/kg/injection, schedule: Q01DX010 (sc), vehicle: saline with Tween-80
[8] = dose: 400.0 mg/kg/injection, schedule: Q01DX010 (sc), vehicle: saline with Tween-80
[9] = dose: 300.0 mg/kg/injection, schedule: Q04DX003 (sc), vehicle: saline with Tween-80
[10] = dose: 300.0 mg/kg/injection, schedule: Q04DX003 (sc), vehicle: saline
[11] = dose: 100.0 mg/kg/injection, schedule: Q04DX003 (sc), vehicle: saline
[12] = dose: 200.0 mg/kg/injection, schedule: Q04DX003 (sc), vehicle: saline
[13] = dose: 400.0 mg/kg/injection, schedule: Q04DX003 (sc), vehicle: saline

## O=C(O)/C=C/C(=O)Nc1ccc(Cl)c(Cl)c1
dose: 50.0 mg/kg/injection, schedule: Q04DX003 (sc), vehicle: Klucel (hydroxypropylcellulose) (HPC)
  T/C: 111 % of control
dose: 100.0 mg/kg/injection, schedule: Q04DX003 (sc), vehicle: Klucel (hydroxypropylcellulose) (HPC)
  T/C: 91 % of control
dose: 400.0 mg/kg/injection, schedule: Q04DX003 (sc), vehicle: Klucel (hydroxypropylcellulose) (HPC)
  T/C: 120 % of control

## C[C@]12CCC(=O)C=C1CC[C@@H]1[C@@H]2C(=O)C[C@@]2(C)[C@H]1CC[C@]2(O)C(=O)CO
[1]
  T/C: 108 % of control
dose: 600.0 mg/kg/injection, schedule: Q04DX003 (sc), vehicle: Klucel (hydroxypropylcellulose) (HPC)
  T/C: 45 % of control

## Cc1noc(N)c1N
dose: 300.0 mg/kg/injection, schedule: Q04DX003 (sc), vehicle: water
  T/C: 102 % of control
dose: 600.0 mg/kg/injection, schedule: Q04DX003 (sc), vehicle: water
  T/C: 97 % of control
dose: 1200.0 mg/kg/injection, schedule: Q04DX003 (sc), vehicle: water
  T/C: 102 % of control
dose: 2400.0 mg/kg/injection, schedule: Q04DX003 (sc), vehicle: water
  T/C: 92 % of control

## NC(=S)c1ncn(C2OC(CO)C(O)C2O)c1N (centres undefined)
dose: 300.0 mg/kg/injection, schedule: Q04DX003 (sc), vehicle: suspension in saline
  T/C: 50 % of control
dose: 600.0 mg/kg/injection, schedule: Q04DX003 (sc), vehicle: suspension in saline
  T/C: 89 % of control
dose: 1200.0 mg/kg/injection, schedule: Q04DX003 (sc), vehicle: suspension in saline
  T/C: 95 % of control
dose: 2400.0 mg/kg/injection, schedule: Q04DX003 (sc), vehicle: suspension in saline
  T/C: 99 % of control

## N#CCCN(C(=S)Nc1cccc(C(F)(F)F)c1)C1CCCCC1
[1]
  T/C: 89 % of control
dose: 2400.0 mg/kg/injection, schedule: Q04DX003 (sc), vehicle: Klucel (hydroxypropylcellulose) (HPC)
  T/C: 106 % of control

## CCCCCCCCCCCCCCCCCC(=O)Nc1ccn(C2OC(CO)C(O)C2O)c(=O)n1 (centres undefined)
[2]
  T/C: 11 % of control and 15 % of control and 24 % of control
[3]
  T/C: 3 % of control and 8 % of control

## CC(=O)Oc1c(C)[nH]ccc1=O
[4]
  T/C: 72 % of control
[5]
  T/C: 87 % of control
dose: 800.0 mg/kg/injection, schedule: Q04DX003 (sc), vehicle: suspension in saline
  T/C: 79 % of control

## S=c1nc[nH]c2nc[nH]c12
dose: 5.25 mg/kg/injection, schedule: Q01DX010 (sc), vehicle: Klucel (hydroxypropylcellulose) (HPC)
  T/C: 118 % of control
dose: 12.5 mg/kg/injection, schedule: Q01DX010 (sc), vehicle: Klucel (hydroxypropylcellulose) (HPC)
  T/C: 72 % of control and 79 % of control

## COc1cccc2c1C(=O)c1c(O)c3c(c(O)c1C2=O)C[C@@](O)(/C(C)=N/NC(=O)c1cccc([N+](=O)[O-])c1)C[C@@H]3OC1CC(N)C(O)C(C)O1 (some centres undefined)
dose: 4.0 mg/kg/injection, schedule: Q01DX010 (sc), vehicle: water
  T/C: 89 % of control
dose: 8.0 mg/kg/injection, schedule: Q01DX010 (sc), vehicle: water
  T/C: 43 % of control
dose: 16.0 mg/kg/injection, schedule: Q01DX010 (sc), vehicle: water
  T/C: 104 % of control

## Cc1c2oc3c(C)ccc(C(=O)N[C@@H]4C(=O)N[C@H](C(C)C)C(=O)N5CCC[C@H]5C(=O)N(C)CC(=O)N(C)[C@@H](C(C)C)C(=O)O[C@H]4C)c3nc-2c(C(=O)N[C@@H]2C(=O)N[C@H](C(C)C)C(=O)N3CCC[C@H]3C(=O)N(C)CC(=O)N(C)[C@@H](C(C)C)C(=O)O[C@H]2C)c(N)c1=O (I: [aThr][dV]P[Sar][NMeV] / II: [aThr][dV]P[Sar][NMeV]; ester I:1-I:C, II:1-II:C; linker I:N-II:N via Actinocin(9to1))
dose: 0.25 mg/kg/injection, schedule: Q04DX003 (sc), vehicle: saline
  T/C: 34 % of control
dose: 0.5 mg/kg/injection, schedule: Q04DX003 (sc), vehicle: saline
  T/C: 11 % of control
dose: 1.0 mg/kg/injection, schedule: Q04DX003 (sc), vehicle: saline
  T/C: -46 % of control
dose: 50.0 micrograms/kg/injection, schedule: Q01DX010 (sc), vehicle: saline
  T/C: 76 % of control
dose: 100.0 micrograms/kg/injection, schedule: Q01DX010 (sc), vehicle: saline
  T/C: 23 % of control and 28 % of control and 33 % of control
dose: 200.0 micrograms/kg/injection, schedule: Q01DX010 (sc), vehicle: saline
  T/C: 1 % of control and 18 % of control

## O=c1[nH]c2c(ccc3cnccc32)c2c1CCC2
dose: 50.0 mg/kg/injection, schedule: Q04DX003 (sc), vehicle: suspension in saline
  T/C: 71 % of control
[4]
  T/C: 70 % of control
[5]
  T/C: 100 % of control

## O=C1N(Cl)C(=O)C(c2ccc(Cl)cc2)(c2ccc(Cl)cc2)N1Cl
[6]
  T/C: 68 % of control
[7]
  T/C: 111 % of control
dose: 200.0 mg/kg/injection, schedule: Q01DX010 (sc), vehicle: saline with Tween-80
  T/C: 65 % of control
[8]
  T/C: 87 % of control

## c1cc[c]([Sn][c]2ccccc2)cc1
dose: 20.0 mg/kg/injection, schedule: Q01DX010 (sc), vehicle: saline
  T/C: 112 % of control
dose: 40.0 mg/kg/injection, schedule: Q01DX010 (sc), vehicle: saline
  T/C: 84 % of control
dose: 80.0 mg/kg/injection, schedule: Q01DX010 (sc), vehicle: saline
  T/C: 74 % of control
dose: 160.0 mg/kg/injection, schedule: Q01DX010 (sc), vehicle: saline
  T/C: 115 % of control

## Cc1ncc([N+](=O)[O-])n1CCSC(N)=O
[6]
  T/C: 103 % of control
[7]
  T/C: 15 % of control
dose: 200.0 mg/kg/injection, schedule: Q01DX009 (sc), vehicle: saline with Tween-80
  T/C: 17 % of control
dose: 400.0 mg/kg/injection, schedule: Q01DX009 (sc), vehicle: saline with Tween-80
  T/C: 42 % of control
[8]
  T/C: 77 % of control and 83 % of control and 86 % of control
dose: 800.0 mg/kg/injection, schedule: Q01DX009 (sc), vehicle: saline with Tween-80
  T/C: 5 % of control

## CC(=O)N(C)C
dose: 168.75 mg/kg/injection, schedule: Q04DX003 (sc), vehicle: saline
  T/C: 81 % of control
dose: 337.5 mg/kg/injection, schedule: Q04DX003 (sc), vehicle: saline
  T/C: 100 % of control
dose: 675.0 mg/kg/injection, schedule: Q04DX003 (sc), vehicle: saline
  T/C: 85 % of control
dose: 1350.0 mg/kg/injection, schedule: Q04DX003 (sc), vehicle: saline
  T/C: 61 % of control

## FC(F)(F)c1nc2nc(Cl)c(Cl)nc2[nH]1
dose: 75.0 mg/kg/injection, schedule: Q04DX003 (sc), vehicle: saline with Tween-80
  T/C: 92 % of control
dose: 150.0 mg/kg/injection, schedule: Q04DX003 (sc), vehicle: saline with Tween-80
  T/C: 97 % of control
[9]
  T/C: 90 % of control

## OCCCN1CCCCC1CO (centres undefined)
[10]
  T/C: 85 % of control
dose: 600.0 mg/kg/injection, schedule: Q04DX003 (sc), vehicle: saline
  T/C: 84 % of control
dose: 1200.0 mg/kg/injection, schedule: Q04DX003 (sc), vehicle: saline
  T/C: 98 % of control

## NC(=O)/C=C/C(=O)c1c(Cl)cccc1Cl
dose: 9.0 mg/kg/injection, schedule: Q04DX003 (sc), vehicle: saline with Tween-80
  T/C: 78 % of control
dose: 36.0 mg/kg/injection, schedule: Q04DX003 (sc), vehicle: saline with Tween-80
  T/C: 43 % of control

## CCCCCCC(=O)CC(SCC)c1ccccc1Cl (centres undefined)
[9]
  T/C: 75 % of control
[2]
  T/C: 88 % of control
[3]
  T/C: 72 % of control
dose: 2400.0 mg/kg/injection, schedule: Q04DX003 (sc), vehicle: saline with Tween-80
  T/C: 96 % of control

## O=C1C(O)=C(c2ccccc2)C(=O)C(O)=C1c1ccccc1
dose: 75.0 mg/kg/injection, schedule: Q04DX003 (sc), vehicle: saline
  T/C: 118 % of control
dose: 150.0 mg/kg/injection, schedule: Q04DX003 (sc), vehicle: saline
  T/C: 74 % of control
[10]
  T/C: 61 % of control

## CC1(C)COCN1COC1CCCCC1
[11]
  T/C: 24 % of control
[12]
  T/C: 32 % of control
[13]
  T/C: 78 % of control
dose: 800.0 mg/kg/injection, schedule: Q04DX003 (sc), vehicle: saline
  T/C: 56 % of control

## O=C1c2ccccc2C(=O)c2c(NCCNCCO)ccc(O)c21
dose: 25.0 mg/kg/injection, schedule: Q04DX003 (sc), vehicle: suspension in saline
  T/C: 95 % of control
dose: 50.0 mg/kg/injection, schedule: Q04DX003 (sc), vehicle: saline
  T/C: 92 % of control
[11]
  T/C: 69 % of control
dose: 100.0 mg/kg/injection, schedule: Q04DX003 (sc), vehicle: suspension in saline
  T/C: 69 % of control and 78 % of control
[12]
  T/C: 63 % of control
[4]
  T/C: 78 % of control
[13]
  T/C: 37 % of control
[5]
  T/C: 98 % of control
